What all share (test): ≥ marks a high value that may be exact or a test limit, other limits are often not marked, values filed in µg/mL are converted to µM
The subject of test [1] is Candida albicans ATCC 2002.
In test [2] the test system is Escherichia coli ATCC 25922.
For test [3], the system named is Staphylococcus aureus ATCC 2592.
Test [4] has as its system Pseudomonas aeruginosa CMCCB 10104.
The test system of test [5] is Staphylococcus aureus ATCC 25923.
In test [6] the test system is Bacillus subtilis ATCC 23857.
Test [7] deals with Pseudomonas aeruginosa ATCC 9027.
Test [8] concerns Staphylococcus aureus ATCC 6538.
The subject of test [9] is Acinetobacter baumannii ATCC 19606.
Test [10] deals with Enterococcus faecalis ATCC 29212.
Test [11] relates to Klebsiella pneumoniae ATCC 700603.
Test [12] has as its system Pseudomonas aeruginosa ATCC 27853.
Test [13] deals with Staphylococcus epidermidis ATCC 12228.
The subject of a further test is Bacillus subtilis.

Values after ≈ are worked out from the molar mass of the structure shown.

Usually MIC stands for the smallest concentration in the dilution series that meets the test's criterion for growth inhibition. Low readings indicate inhibition by little substance, high ones a need for much substance. In the case of `CC[C@H](C)[C@H](NC(=O)[C@@H](N)Cc1ccccc1)C(=O)N1CCC[C@H]1C(=O)N[C@@H](CC(C)C)C(=O)N[C@H](C(=O)N[C@@H](CO)C(=O)NCC(=O)N[C@@H](CC(C)C)C(=O)N[C@@H](Cc1ccccc1)C(=O)N[C@@H](CO)C(=O)N[C@@H](CCCN=C(N)N)C(=O)N[C@@H](CC(C)C)C(=O)N[C@@H](CC(C)C)C(N)=O)C(C)C` [FIPLVSGLFSRLL], the values for the MIC in test [1], in [2] and in test [3] were 8.55 µM (≈ 12.5 µg/mL), 8.55 µM (≈ 12.5 µg/mL) and 4.28 µM (≈ 6.25 µg/mL), respectively.
For `CC[C@H](C)[C@H](NC(=O)[C@H](CC(C)C)NC(=O)[C@@H](NC(=O)[C@H](Cc1ccccc1)NC(=O)[C@H](CC(C)C)NC(=O)CN)[C@@H](C)O)C(=O)N[C@@H](CCCCN)C(=O)NCC(=O)N[C@@H](C)C(=O)N[C@@H](Cc1ccc(O)cc1)C(=O)N[C@@H](CCCCN)C(=O)N[C@@H](CC(C)C)C(=O)N[C@@H](CC(=O)O)C(=O)N[C@@H](C)C(=O)N1CCC[C@H]1C(=O)N[C@H](C(=O)N[C@H](C(=O)N[C@@H](C)C(=O)N[C@@H](CS)C(=O)N[C@@H](CC(N)=O)C(=O)O)C(C)C)[C@@H](C)O` [GLFTLIKGAYKLDAPTVACN], the MIC worked out at 9.59 µM (≈ 20.1 µg/mL) in [1], 19.2 µM (≈ 40.2 µg/mL) in test [2], 19.2 µM (≈ 40.2 µg/mL) in [4] and 9.59 µM (≈ 20.1 µg/mL) in test [5].
Consider `CC[C@H](C)[C@H](NC(=O)[C@H](CCCCN)NC(=O)[C@@H](NC(=O)[C@@H](NC(=O)[C@H](CCCCN)NC(=O)[C@H](CCCCN)NC(=O)[C@@H](NC(=O)[C@@H](NC(=O)[C@H](CCCCN)NC(=O)[C@H](CCCCN)NC(=O)[C@@H](NC(=O)[C@@H](N)CCCCN)[C@@H](C)CC)[C@@H](C)CC)[C@@H](C)CC)[C@@H](C)CC)[C@@H](C)CC)C(N)=O` [KIKKIIKKIIKI], for which the MIC in test [6] amounted to 15.1 µM (≈ 22.1 µg/mL); in test [2], 219 µM (≈ 321 µg/mL); in test [7], 9 µM (≈ 13.2 µg/mL); in [8], 339 µM (≈ 497 µg/mL).
Regarding `CC[C@H](C)[C@H](NC(=O)CN)C(=O)N[C@H](C(=O)N[C@@H](C)C(=O)NCC(=O)N[C@H](C(=O)N[C@H](C(=O)N[C@H](C(=O)N[C@@H](C)C(=O)N[C@H](C(=O)N[C@@H](CCCCN)C(=O)N[C@@H](CCCCN)C(N)=O)[C@@H](C)CC)[C@@H](C)CC)[C@@H](C)CC)[C@@H](C)CC)[C@@H](C)CC` [GIIAGIIIAIKK], the MIC in test [6] was 8 µM (≈ 9.67 µg/mL); in test [2], > 128 µM.
Take `CC[C@H](C)[C@H](NC(=O)[C@H](CCCN=C(N)N)NC(=O)[C@H](CCCN=C(N)N)NC(=O)[C@H](Cc1ccccc1)NC(=O)[C@H](Cc1ccccc1)NC(=O)CN)C(=O)N[C@@H](CCCN=C(N)N)C(=O)N[C@H](C(=O)N[C@@H](Cc1ccccc1)C(=O)N[C@@H](Cc1ccccc1)C(N)=O)[C@@H](C)O` [GFFRRIRTFF]: the MIC amounted to 32 µM (≈ 43.1 µg/mL) in [9]; 8 µM (≈ 10.8 µg/mL) in [6]; 32 µM (≈ 43.1 µg/mL) in test [10]; 32 µM (≈ 43.1 µg/mL) in test [2]; 32 µM (≈ 43.1 µg/mL) in [11]; 4 µM (≈ 5.38 µg/mL) in [12]. The results for the MIC in [5] and in test [13] were 8 µM (≈ 10.8 µg/mL) and 32 µM (≈ 43.1 µg/mL), respectively.
`CC(C)[C@H](N)C(=O)N[C@@H](CCCCN)C(=O)N[C@@H](Cc1c[nH]c2ccccc12)C(=O)N[C@@H](CCCN=C(N)N)C(=O)N[C@@H](Cc1c[nH]c2ccccc12)C(=O)N[C@@H](CCCCN)C(=O)N[C@@H](Cc1c[nH]c2ccccc12)C(=O)N[C@@H](CCCCN)C(=O)N[C@@H](Cc1c[nH]c2ccccc12)C(=O)N[C@@H](CCCN=C(N)N)C(=O)N[C@@H](Cc1c[nH]c2ccccc12)C(=O)N[C@@H](CCCCN)C(=O)N[C@@H](Cc1c[nH]c2ccccc12)C(=O)N[C@@H](CCCCN)C(=O)N[C@@H](Cc1c[nH]c2ccccc12)C(=O)N[C@@H](CCCCN)C(=O)N[C@H](C(N)=O)C(C)C` [VKWRWKWKWRWKWKWKV]: the minimal inhibitory concentration (MIC) against Bacillus subtilis is ≥ 38.4 µM; in test [1], ≥ 38.4 µM; in [2] it was > 38.4 µM; in [3], ≥ 38.4 µM.
As for `CC(C)[C@H](N)C(=O)N[C@@H](CCCCN)C(=O)N[C@@H](Cc1c[nH]c2ccccc12)C(=O)N[C@@H](CCCN=C(N)N)C(=O)N[C@@H](Cc1c[nH]c2ccccc12)C(=O)N[C@@H](CCCCN)C(=O)N[C@@H](CCCCN)C(=O)N[C@@H](Cc1c[nH]c2ccccc12)C(=O)N[C@@H](CCCN=C(N)N)C(=O)N[C@@H](Cc1c[nH]c2ccccc12)C(=O)N[C@@H](CCCCN)C(=O)N[C@@H](Cc1c[nH]c2ccccc12)C(=O)N[C@@H](CCCCN)C(=O)N[C@@H](Cc1c[nH]c2ccccc12)C(=O)N[C@@H](CCCCN)C(=O)N[C@H](C(N)=O)C(C)C` [VKWRWKKWRWKWKWKV], the minimal inhibitory concentration (MIC) against Bacillus subtilis is ≥ 41.4 µM; in test [1] it was ≥ 41.4 µM; in test [2], > 41.4 µM; in test [3], ≥ 41.4 µM.
For the compound `CC[C@H](C)[C@@H]1NC(=O)[C@H](CO)NC(=O)[C@H](CCCCN)NC(=O)[C@H]([C@@H](C)O)NC(=O)[C@H](Cc2c[nH]c3ccccc23)NC(=O)[C@@H](N)CSSC[C@@H](C(=O)N[C@@H](Cc2ccccc2)C(=O)O)NC(=O)[C@@H]2CCCN2C(=O)[C@H](CCCCN)NC(=O)[C@@H]2CCCN2C(=O)[C@@H]2CCCN2C1=O` [CWTKSIPPKPCF], the minimal inhibitory concentration (MIC) worked out at 7.46 µM (≈ 10.5 µg/mL) against Bacillus subtilis, 13.8 µM (≈ 19.4 µg/mL) in test [1], 6.33 µM (≈ 8.89 µg/mL) in test [2] and 4.24 µM (≈ 5.95 µg/mL) in test [3].
As to `CC[C@H](C)[C@H](NC(=O)[C@H](CCCCN)NC(=O)[C@H](CCCCN)NC(=O)[C@H](C)NC(=O)[C@@H](NC(=O)[C@H](C)NC(=O)[C@H](CC(C)C)NC(=O)[C@H](CC(C)C)NC(=O)[C@H](C)NC(=O)[C@H](CCCCN)NC(=O)[C@H](C)NC(=O)[C@H](CC(N)=O)NC(=O)[C@@H](N)CC(C)C)C(C)C)C(=O)N[C@@H](CC(C)C)C(N)=O` [LNAKALLAVAKKIL], the minimal inhibitory concentration (MIC) was 8 µM (≈ 11.7 µg/mL) in [6]; 8 µM (≈ 11.7 µg/mL) in [2]; 32 µM (≈ 46.9 µg/mL) in test [11]; 32 µM (≈ 46.9 µg/mL) in [7]; 32 µM (≈ 46.9 µg/mL) in test [5].
Regarding `CSCC[C@H](NC(=O)[C@H](CCC(=O)O)NC(=O)[C@H](C)NC(=O)[C@H](C)NC(=O)[C@@H](NC(=O)CNC(=O)[C@H](C)NC(=O)[C@@H](NC(=O)[C@H](Cc1ccccc1)NC(=O)[C@@H]1CCCN1C(=O)[C@@H](N)CC(C)C)C(C)C)C(C)C)C(=O)N[C@@H](CCSC)C(=O)N[C@@H](CCC(N)=O)C(=O)N[C@@H](Cc1cnc[nH]1)C(=O)N[C@H](C(=O)N[C@@H](Cc1ccc(O)cc1)C(=O)N[C@H]1CSSC[C@@H](C(=O)O)NC(=O)[C@H](CCCCN)NC(=O)[C@H](CCCCN)NC(=O)[C@H](CO)NC(=O)[C@H](C)NC(=O)[C@H](C)NC1=O)C(C)C` [LPFVAGVAAEMMQHVYCAASKKC], the MIC is 4.32 µM (≈ 10.6 µg/mL) in [1], 2.16 µM (≈ 5.3 µg/mL) in [2], 17.3 µM (≈ 42.4 µg/mL) in test [4] and 4.32 µM (≈ 10.6 µg/mL) in [5].
On to `CC[C@H](C)[C@H](NC(=O)CN)C(=O)N[C@@H](CC(C)C)C(=O)N[C@@H](CCCCN)C(=O)N[C@@H](CCCCN)C(=O)N[C@H](C(=O)N[C@@H](CC(C)C)C(=O)N[C@@H](CCCCN)C(=O)N[C@@H](CCCCN)C(=O)N[C@H](C(=O)N[C@@H](CC(C)C)C(=O)N[C@@H](CCCCN)C(=O)N[C@@H](CCCCN)C(=O)N[C@@H](CC(C)C)C(N)=O)[C@@H](C)CC)[C@@H](C)CC` [GILKKILKKILKKL], for which the minimum inhibitory concentration (MIC) in test [6] was determined as 1.6 µM (≈ 2.62 µg/mL); in test [2] it was 9.3 µM (≈ 15.2 µg/mL); in test [7], 5.8 µM (≈ 9.48 µg/mL); in test [8], 5.2 µM (≈ 8.5 µg/mL).
As to `CC[C@H](C)[C@H](NC(=O)[C@H](CCCN=C(N)N)NC(=O)[C@H](CCCCN)NC(=O)[C@H](Cc1ccccc1)NC(=O)[C@H](Cc1c[nH]c2ccccc12)NC(=O)[C@@H](N)CCCCN)C(=O)N[C@@H](CCCCN)C(=O)N[C@H](C(=O)N[C@@H](Cc1ccccc1)C(=O)N[C@@H](Cc1c[nH]c2ccccc12)C(N)=O)[C@@H](C)O` [KWFKRIKTFW], the MIC in test [9] came out at 128 µM (≈ 184 µg/mL); in test [6] it was 16 µM (≈ 23 µg/mL); in test [10] it was 64 µM (≈ 92.1 µg/mL); in [2], 16 µM (≈ 23 µg/mL); in test [11], 32 µM (≈ 46 µg/mL); in test [12], 8 µM (≈ 11.5 µg/mL). The MIC is 16 µM (≈ 23 µg/mL) in test [5] and 128 µM (≈ 184 µg/mL) in test [13].
Take `CC[C@H](C)[C@H](NC(=O)CN)C(=O)N[C@@H](CCCN=C(N)N)C(=O)N[C@@H](CCCN=C(N)N)C(=O)NCC(=O)N[C@H](C(=O)N[C@@H](CCCN=C(N)N)C(=O)N[C@@H](CCCN=C(N)N)C(=O)N[C@H](C(=O)N[C@H](C(=O)N[C@@H](CCCCN)C(=O)N[C@@H](CCCN=C(N)N)C(N)=O)[C@@H](C)CC)[C@@H](C)CC)[C@@H](C)CC` [GIRRGIRRIIKR]: the MIC is ≥ 128 µM in test [6] and > 128 µM in [2].

(Values after DBAASP.)
